Measured values from ChEMBL document CHEMBL3580659, “One-pot multicomponent synthesis of indole incorporated thiazolylcoumarins and their antibacterial, anticancer and DNA cleavage studies” (2015).

How the values were obtained:
Type in all cases: functional
MDA-MB-435 = assay: Cytotoxicity against human MDA-MB-435 cells assessed as cell growth level at 100 uM after 48 hrs by sulforhodamine B assay
[1] = Cytotoxicity against human NCI-ADR-RES cells assessed as cell growth level at 100 uM after 48 hrs by sulforhodamine B assay
SK-OV-3 = assay: Cytotoxicity against human SKOV3 cells assessed as cell growth level at 100 uM after 48 hrs by sulforhodamine B assay
MDA-MB-468 [2] = assay: Cytotoxicity against human MDA-MB-468 cells assessed as cell growth level at 100 uM after 48 hrs by sulforhodamine B assay
HCC 2998 = assay: Cytotoxicity against human HCC2998 cells assessed as cell growth level at 10 nM after 48 hrs by sulforhodamine B assay
HCT-116 = assay: Cytotoxicity against human HCT116 cells assessed as cell growth level at 10 nM after 48 hrs by sulforhodamine B assay
SNB-19 [3] = assay: Cytotoxicity against human SNB19 cells assessed as cell growth level at 10 nM after 48 hrs by sulforhodamine B assay
U-251 = assay: Cytotoxicity against human U251 cells assessed as cell growth level at 10 nM after 48 hrs by sulforhodamine B assay
IGROV-1 = assay: Cytotoxicity against human IGROV1 cells assessed as cell growth level at 10 nM after 48 hrs by sulforhodamine B assay
UO-31 = assay: Cytotoxicity against human UO31 cells assessed as cell growth level at 10 nM after 48 hrs by sulforhodamine B assay
PC-3 = assay: Cytotoxicity against human PC3 cells assessed as cell growth level at 10 nM after 48 hrs by sulforhodamine B assay
HL-60(TB) = assay: Cytotoxicity against human HL-60(TB) cells assessed as cell growth level at 100 nM after 48 hrs by sulforhodamine B assay
SR = assay: Cytotoxicity against human SR cells assessed as cell growth level at 100 nM after 48 hrs by sulforhodamine B assay
KM12 = assay: Cytotoxicity against human KM12 cells assessed as cell growth level at 100 nM after 48 hrs by sulforhodamine B assay
SF-539 = assay: Cytotoxicity against human SF539 cells assessed as cell growth level at 100 nM after 48 hrs by sulforhodamine B assay
SNB-19 [4] = assay: Cytotoxicity against human SNB19 cells assessed as cell growth level at 100 nM after 48 hrs by sulforhodamine B assay
MOLT-4 = assay: Cytotoxicity against human MOLT4 cells assessed as cell growth level at 10 uM after 48 hrs by sulforhodamine B assay
RPMI-8226 = assay: Cytotoxicity against human RPMI8226 cells assessed as cell growth level at 10 uM after 48 hrs by sulforhodamine B assay
SNB-75 = assay: Cytotoxicity against human SNB75 cells assessed as cell growth level at 10 uM after 48 hrs by sulforhodamine B assay
LOX IMVI = assay: Cytotoxicity against human LOXIMVI cells assessed as cell growth level at 10 uM after 48 hrs by sulforhodamine B assay
M14 [5] = assay: Cytotoxicity against human M14 cells assessed as cell growth level at 10 uM after 48 hrs by sulforhodamine B assay
SK-MEL-2 = assay: Cytotoxicity against human SK-MEL-2 cells assessed as cell growth level at 10 uM after 48 hrs by sulforhodamine B assay
UACC-257 [6] = assay: Cytotoxicity against human UACC257 cells assessed as cell growth level at 10 uM after 48 hrs by sulforhodamine B assay
786-0 = assay: Cytotoxicity against human 786-0 cells assessed as cell growth level at 10 uM after 48 hrs by sulforhodamine B assay
CAKI-1 = assay: Cytotoxicity against human CAKI-1 cells assessed as cell growth level at 10 uM after 48 hrs by sulforhodamine B assay
SF-268 = assay: Cytotoxicity against human SF268 cells assessed as cell growth level at 1 uM after 48 hrs by sulforhodamine B assay
M14 [7] = assay: Cytotoxicity against human M14 cells assessed as cell growth level at 1 uM after 48 hrs by sulforhodamine B assay
SK-MEL-5 = assay: Cytotoxicity against human SK-MEL-5 cells assessed as cell growth level at 1 uM after 48 hrs by sulforhodamine B assay
MCF7 = assay: Cytotoxicity against human MCF7 cells assessed as cell growth level at 1 uM after 48 hrs by sulforhodamine B assay
HOP-62 [8] = assay: Cytotoxicity against human HOP62 cells assessed as cell growth level at 100 uM after 48 hrs by sulforhodamine B assay
MDA-MB-468 [9] = assay: Cytotoxicity against human MDA-MB-468 cells assessed as cell growth level at 10 uM after 48 hrs by sulforhodamine B assay
SF-295 = assay: Cytotoxicity against human SF295 cells after 48 hrs by sulforhodamine B assay; settings: SF-295, 48 h
Malme-3M = assay: Cytotoxicity against human MALME-3M cells after 48 hrs by sulforhodamine B assay
SK-MEL-28 = assay: Cytotoxicity against human SK-MEL-28 cells after 48 hrs by sulforhodamine B assay; settings: SK-MEL-28, 48 h
UACC-257 [10] = assay: Cytotoxicity against human UACC257 cells after 48 hrs by sulforhodamine B assay; settings: UACC-257, 48 h
UACC-62 = assay: Cytotoxicity against human UACC62 cells after 48 hrs by sulforhodamine B assay; settings: UACC-62, 48 h
CCRF-CEM = assay: Cytotoxicity against human CCRF-CEM cells assessed as cell growth level at 10 nM after 48 hrs by sulforhodamine B assay
HOP-62 [11] = assay: Cytotoxicity against human HOP62 cells assessed as cell growth level at 10 nM after 48 hrs by sulforhodamine B assay
HOP-92 = assay: Cytotoxicity against human HOP92 cells assessed as cell growth level at 10 nM after 48 hrs by sulforhodamine B assay
[12] = read-out: LC50 (the source's name)
[13] = read-out: pLC50 (the source's name) (converted)

O=c1oc2ccccc2cc1-c1csc(N/N=C/c2c[nH]c3ccccc23)n1
Activity (MDA-MB-435): -69% | Activity [1]: 8% | Activity (SK-OV-3): -48% | Activity (MDA-MB-468 [2]): -39% | Activity (HCC 2998): 99% | Activity (HCT-116): 92% | Activity (SNB-19 [3]): 91% | Activity (U-251): 100% | Activity (IGROV-1): 108% | Activity (UO-31): 97% | Activity (PC-3): 105% | Activity (HL-60(TB)): 97% | Activity (SR): 102% | Activity (KM12): 98% | Activity (SF-539): 88% | Activity (SNB-19 [4]): 89% | Activity (MOLT-4): -32.32% | Activity (RPMI-8226): -33.83% | Activity (SNB-75): 15.44% | Activity (LOX IMVI): -52.19% | Activity (M14 [5]): 34.19% | Activity (SK-MEL-2): -9.49% | Activity (UACC-257 [6]): 8.34% | Activity (786-0): -53.65% | Activity (CAKI-1): -41.32% | Activity (SF-268): 86% | Activity (M14 [7]): 89% | Activity (SK-MEL-5): 90% | Activity (MCF7): 69% | Activity (HOP-62 [8]): -24% | Activity (MDA-MB-468 [9]): 2.39% | GI50 (SF-295; read-out: GI50): 2.23 µM | CC50 (SF-295; [12]): > 100 µM | TGI (SF-295; read-out: TGI): 6.76 µM | GI50 (SF-295; read-out: pGI50 (converted)): 2.24 µM | CC50 (SF-295; [13]): > 100 µM | TGI (SF-295; read-out: pTGI (converted)): 6.76 µM | GI50 (Malme-3M; read-out: GI50): 1.59 µM | CC50 (Malme-3M; [12]): > 100 µM | TGI (Malme-3M; read-out: TGI): 4.17 µM | GI50 (Malme-3M; read-out: pGI50 (converted)): 1.58 µM | CC50 (Malme-3M; [13]): > 100 µM | TGI (Malme-3M; read-out: pTGI (converted)): 4.17 µM | GI50 (SK-MEL-28; read-out: GI50): 3.96 µM | CC50 (SK-MEL-28; [12]): > 100 µM | TGI (SK-MEL-28; read-out: TGI): 96.9 µM | GI50 (SK-MEL-28; read-out: pGI50 (converted)): 3.98 µM | CC50 (SK-MEL-28; [13]): > 100 µM | TGI (SK-MEL-28; read-out: pTGI (converted)): 97.7 µM | GI50 (UACC-257 [10]; read-out: GI50): 2.15 µM | CC50 (UACC-257 [10]; [12]): > 100 µM | TGI (UACC-257 [10]; read-out: TGI): 5.63 µM | GI50 (UACC-257 [10]; read-out: pGI50 (converted)): 2.14 µM | CC50 (UACC-257 [10]; [13]): > 100 µM | TGI (UACC-257 [10]; read-out: pTGI (converted)): 5.62 µM | GI50 (UACC-62; read-out: GI50): 1.6 µM | CC50 (UACC-62; [12]): 7.11 µM | TGI (UACC-62; read-out: TGI): 3.38 µM | GI50 (UACC-62; read-out: pGI50 (converted)): 1.58 µM | CC50 (UACC-62; [13]): 7.08 µM | TGI (UACC-62; read-out: pTGI (converted)): 3.39 µM | Activity (CCRF-CEM): 100% | Activity (HOP-62 [11]): 105% | Activity (HOP-92): 100%
